Experiments:
Assay type in all cases: biochemical
factor Xa = factor Xa (Homo sapiens, UniProt P00742); test: factor Xa amidolytic assay (chromogenic substrate S-2765)
Description: (§1) The compounds of the present invention are dissolved in buffer to give solutions containing concentrations such that assay concentrations range from 0 to 100 μM. In the assays for thrombin, prothrombinase and factor Xa, a synthetic chromogenic substrate is added to a solution containing test compound and the enzyme of interest and the residual catalytic activity of that enzyme is determined spectrophotometrically. The IC50 of a compound is determined from the substrate turnover. The IC50 is the concentration of test compound giving 50% inhibition of: the substrate turnover.
(§2) The factor Xa and thrombin assays were performed at room temperature, in 0.02 M TrisHCl buffer, pH 7.5, containing 0.15 M NaCl. The rates of hydrolysis of the para-nitroanilide substrate S-2765 (Chromogenix) for factor Xa, and the substrate Chromozym TH (Boehringer Mannheim) for thrombin following preincubation of the enzyme with inhibitor for 5 minutes at room temperature, and were determined using the Softmax 96-well plate reader (Molecular Devices), monitored at 405 nm to measure the time dependent appearance of p-nitroaniline.

KALLIKREIN = test: kallikrein protease inhibition assay
TPA = TPA (Homo sapiens, UniProt P00750); test: TPA protease inhibition assay
Sequence of TPA (P00750 36-562, species assumed): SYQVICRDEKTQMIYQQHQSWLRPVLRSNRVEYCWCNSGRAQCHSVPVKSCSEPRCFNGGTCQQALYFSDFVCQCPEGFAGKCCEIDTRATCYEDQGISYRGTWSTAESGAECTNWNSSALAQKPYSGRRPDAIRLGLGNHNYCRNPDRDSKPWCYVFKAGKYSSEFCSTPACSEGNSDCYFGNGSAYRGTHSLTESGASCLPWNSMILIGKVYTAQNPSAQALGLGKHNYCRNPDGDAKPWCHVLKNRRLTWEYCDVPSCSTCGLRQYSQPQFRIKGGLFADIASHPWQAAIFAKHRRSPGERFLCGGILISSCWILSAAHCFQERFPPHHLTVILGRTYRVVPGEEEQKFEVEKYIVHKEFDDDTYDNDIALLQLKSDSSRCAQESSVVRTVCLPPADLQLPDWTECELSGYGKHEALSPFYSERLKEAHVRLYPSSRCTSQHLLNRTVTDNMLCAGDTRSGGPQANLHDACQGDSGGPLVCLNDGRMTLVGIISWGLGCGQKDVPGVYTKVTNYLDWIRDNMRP

APC = APC (Homo sapiens, UniProt P04070); test: APC protease inhibition assay
Sequence of APC (P04070 212-461 limits assumed): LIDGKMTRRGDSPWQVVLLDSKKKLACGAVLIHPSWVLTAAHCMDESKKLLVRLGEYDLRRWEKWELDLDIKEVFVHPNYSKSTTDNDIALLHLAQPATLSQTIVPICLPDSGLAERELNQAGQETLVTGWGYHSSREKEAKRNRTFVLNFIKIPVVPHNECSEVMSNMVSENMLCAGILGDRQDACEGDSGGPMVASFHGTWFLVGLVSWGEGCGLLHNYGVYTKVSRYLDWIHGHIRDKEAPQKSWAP
Sequence of APC (P04070 43-197 limits assumed): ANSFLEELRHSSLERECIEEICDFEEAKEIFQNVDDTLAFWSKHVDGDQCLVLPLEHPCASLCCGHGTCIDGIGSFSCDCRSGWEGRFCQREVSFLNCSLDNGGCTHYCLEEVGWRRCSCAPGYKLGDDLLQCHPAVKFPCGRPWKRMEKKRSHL

TRYPSIN = target: T1, TRYPSIN (Bos taurus, UniProt P00760); test: trypsin protease inhibition assay
T1 construct: gene PRSS1
T1 sequence (P00760 24-246): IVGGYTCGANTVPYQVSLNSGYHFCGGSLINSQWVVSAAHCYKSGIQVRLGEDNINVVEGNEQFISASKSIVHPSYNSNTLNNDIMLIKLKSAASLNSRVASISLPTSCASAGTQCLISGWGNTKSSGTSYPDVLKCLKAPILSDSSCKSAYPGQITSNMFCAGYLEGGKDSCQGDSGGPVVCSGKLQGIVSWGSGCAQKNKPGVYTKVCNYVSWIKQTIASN

prothrombinase complex = prothrombinase complex (Homo sapiens, UniProt P00742); test: prothrombinase inhibition assay, plasma free system; conditions: read-out: IIASE IC50
Sequence of prothrombinase complex (P00742 235-488 limits assumed): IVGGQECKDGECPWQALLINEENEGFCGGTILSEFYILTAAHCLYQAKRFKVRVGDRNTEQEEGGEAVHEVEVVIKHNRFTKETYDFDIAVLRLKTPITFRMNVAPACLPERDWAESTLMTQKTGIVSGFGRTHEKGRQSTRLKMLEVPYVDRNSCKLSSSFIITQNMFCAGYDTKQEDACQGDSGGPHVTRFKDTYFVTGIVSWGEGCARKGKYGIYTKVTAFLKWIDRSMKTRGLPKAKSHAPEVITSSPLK
Sequence of prothrombinase complex (P00742 41-179 limits assumed): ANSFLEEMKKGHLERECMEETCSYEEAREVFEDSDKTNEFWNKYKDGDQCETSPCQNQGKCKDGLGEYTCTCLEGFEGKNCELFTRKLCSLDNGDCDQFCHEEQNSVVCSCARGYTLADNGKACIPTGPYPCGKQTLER
Sequence of prothrombinase complex (P12259 29-737 partner limits assumed): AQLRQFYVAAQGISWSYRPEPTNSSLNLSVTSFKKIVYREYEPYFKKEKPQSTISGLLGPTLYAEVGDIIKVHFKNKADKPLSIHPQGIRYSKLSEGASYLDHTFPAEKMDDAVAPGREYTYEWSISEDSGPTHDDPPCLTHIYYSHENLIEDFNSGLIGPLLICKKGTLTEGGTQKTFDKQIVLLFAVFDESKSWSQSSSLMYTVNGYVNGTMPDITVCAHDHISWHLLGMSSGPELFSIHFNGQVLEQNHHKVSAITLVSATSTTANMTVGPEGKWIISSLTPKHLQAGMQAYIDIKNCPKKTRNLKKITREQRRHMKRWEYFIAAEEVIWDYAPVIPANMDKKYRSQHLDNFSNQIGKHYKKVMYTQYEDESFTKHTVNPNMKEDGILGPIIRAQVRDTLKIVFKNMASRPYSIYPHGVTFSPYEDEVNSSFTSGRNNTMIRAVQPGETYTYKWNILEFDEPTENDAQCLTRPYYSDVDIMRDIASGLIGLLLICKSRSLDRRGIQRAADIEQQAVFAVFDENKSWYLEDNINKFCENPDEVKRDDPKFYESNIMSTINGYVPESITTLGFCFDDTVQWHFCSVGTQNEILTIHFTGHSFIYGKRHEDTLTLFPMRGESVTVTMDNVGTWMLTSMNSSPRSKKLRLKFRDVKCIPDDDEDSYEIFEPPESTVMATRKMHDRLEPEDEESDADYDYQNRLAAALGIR
Sequence of prothrombinase complex (P12259 1574-2224 partner limits assumed): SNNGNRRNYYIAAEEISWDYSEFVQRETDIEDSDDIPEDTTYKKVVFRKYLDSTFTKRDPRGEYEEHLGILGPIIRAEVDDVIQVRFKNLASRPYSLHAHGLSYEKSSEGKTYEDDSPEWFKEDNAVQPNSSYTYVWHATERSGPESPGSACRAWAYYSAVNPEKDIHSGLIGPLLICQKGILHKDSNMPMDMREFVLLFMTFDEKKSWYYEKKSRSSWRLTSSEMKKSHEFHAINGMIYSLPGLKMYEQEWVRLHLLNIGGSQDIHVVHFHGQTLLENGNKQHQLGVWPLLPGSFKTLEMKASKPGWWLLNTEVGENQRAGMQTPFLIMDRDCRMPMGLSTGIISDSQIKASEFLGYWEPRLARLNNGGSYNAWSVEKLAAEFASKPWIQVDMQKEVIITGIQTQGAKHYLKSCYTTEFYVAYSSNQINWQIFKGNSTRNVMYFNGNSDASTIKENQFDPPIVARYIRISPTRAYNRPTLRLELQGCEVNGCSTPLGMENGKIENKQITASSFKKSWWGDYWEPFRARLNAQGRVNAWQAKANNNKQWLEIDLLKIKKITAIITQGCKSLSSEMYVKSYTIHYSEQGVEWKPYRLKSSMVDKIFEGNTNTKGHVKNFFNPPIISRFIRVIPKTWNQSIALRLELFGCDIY
Description: as §1
The prothrombinase inhibition assay was performed in a plasma free system with modifications to the method described by Sinha, U. et al., Thromb. Res., 75, 427-436 (1994). Specifically, the activity of the prothrombinase complex was determined by measuring the time course of thrombin generation using the p-nitroanilide substrate Chromozym TH. The assay consists of preincubation (5 minutes) of selected compounds to be tested as inhibitors with the complex formed from factor Xa (0.5 nM), factor Va (2 nM), phosphatidyl serine:phosphatidyl choline (25:75, 20 μM) in 20 mM TrisHCI buffer, pH 7.5, containing 0.15 M NaCl, 5 mM CaCl2 and 0.1% bovine serum albumin. Aliquots from the complex-inhibitor mixture were added to prothrombin (1 nM) and Chromozym TH (0.1 mM). The rate of substrate cleavage was monitored at 405 nm for two minutes. Eight different concentrations of inhibitor were assayed in duplicate. A standard curve of thrombin generation by an equivalent amount of untreated complex was used for determination of percent inhibition.

PLASMIN = PLASMIN (Homo sapiens, UniProt P00747); test: plasmin protease inhibition assay
Sequence of PLASMIN (P00747 581-810 limits assumed, species assumed): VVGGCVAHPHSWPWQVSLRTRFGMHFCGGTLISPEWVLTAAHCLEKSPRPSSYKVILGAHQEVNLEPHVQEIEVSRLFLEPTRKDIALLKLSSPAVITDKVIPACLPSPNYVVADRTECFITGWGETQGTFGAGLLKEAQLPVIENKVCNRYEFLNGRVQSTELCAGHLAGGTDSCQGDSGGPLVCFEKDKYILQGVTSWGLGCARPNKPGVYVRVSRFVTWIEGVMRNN
Sequence of PLASMIN (P00747 97-580 limits assumed, species assumed): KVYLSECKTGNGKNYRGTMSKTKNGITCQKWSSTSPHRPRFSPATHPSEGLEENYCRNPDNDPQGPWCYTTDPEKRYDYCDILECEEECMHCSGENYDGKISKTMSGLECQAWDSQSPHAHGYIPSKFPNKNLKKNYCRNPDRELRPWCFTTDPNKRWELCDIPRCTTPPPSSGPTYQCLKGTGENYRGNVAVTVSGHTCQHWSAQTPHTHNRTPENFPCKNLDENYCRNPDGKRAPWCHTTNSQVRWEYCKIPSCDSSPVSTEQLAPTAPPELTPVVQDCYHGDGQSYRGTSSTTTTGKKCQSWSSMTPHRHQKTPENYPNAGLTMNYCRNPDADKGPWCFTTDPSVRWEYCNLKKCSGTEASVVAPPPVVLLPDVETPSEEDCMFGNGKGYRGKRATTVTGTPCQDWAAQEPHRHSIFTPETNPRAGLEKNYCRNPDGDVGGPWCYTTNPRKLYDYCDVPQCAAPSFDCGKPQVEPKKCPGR

thrombin = target: T2, thrombin (Homo sapiens, UniProt P00734); test: thrombin amidolytic assay (Chromozym TH); conditions: read-out: IIA IC50
T2 construct: proteolytic cleavage of its precursor prothrombin at the Arg-Thr linkage at positions 271-272 and the Arg-Ile linkage at positions 320-321
Description: as §1, §2

Sequence of factor Xa (P00742 235-488 limits assumed): as the sequence (P00742 235-488 limits assumed) above
Sequence of factor Xa (P00742 41-179 limits assumed): as the sequence (P00742 41-179 limits assumed) above

| SMILES | IC50 (factor Xa) | IC50 (KALLIKREIN) | IC50 (TPA) | IC50 (APC) | IC50 (TRYPSIN) | IC50 (prothrombinase complex) | IC50 (PLASMIN) | IC50 (thrombin) |
| --- | --- | --- | --- | --- | --- | --- | --- | --- |
| CC(=N)N1CCC(Oc2ccc3c(c2)CC(=O)N3Cc2ccc3ccc(C(=N)N)cc3c2)CC1 [Example 1] | 13 nM | 307 nM | 18300 nM | 5180 nM | 62.1 nM | 504 nM | 2460 nM | 72500 nM |
| CC(=N)N1CCC(Oc2ccc3c(c2)C(C)(C)C(=O)N3Cc2ccc3ccc(C(=N)N)cc3c2)CC1 [Example 4] | 40.2 nM | 606 nM | 17900 nM | 848 nM | 13.5 nM | 163 nM | 2210 nM | 6970 nM |
| CC1(C)C(=O)N(Cc2ccc3ccc(C(=N)N)cc3c2)c2ccc(OC3CCN(C(=N)N)CC3)cc21 [Example 5] | 72.5 nM | 535 nM | 19500 nM | 683 nM | 6.39 nM | 264 nM | 1410 nM | 4530 nM |
| CC(C)=C1C(=O)N(Cc2ccc3ccc(C(=N)N)cc3c2)c2ccc(OC3CCN(C(=N)N)CC3)cc21 [Example 6] | 15.1 nM | 304 nM | 28500 nM | 3060 nM | 17.6 nM | 19.8 nM | 880 nM | 19500 nM |
| CC(C)C1C(=O)N(Cc2ccc3ccc(C(=N)N)cc3c2)c2ccc(OC3CCN(C(=N)N)CC3)cc21 (stereo not shown) [Example 7] | 28.4 nM | 440 nM | 27900 nM | 549 nM | 3.47 nM | 116 nM | 734 nM | 4260 nM |
| CC(=N)N1CCC(Oc2ccc3c(c2)C(C(C)C)C(=O)N3Cc2ccc3ccc(C(=N)N)cc3c2)CC1 (stereo not shown) [Example 8] | 18.7 nM | 334 nM | 18100 nM | 389 nM | 4.92 nM | 36.3 nM | 628 nM | 4710 nM |
| CC(=N)N1CCC(Oc2ccc3c(c2)/C(=C/c2ccccc2)C(=O)N3Cc2ccc3ccc(C(=N)N)cc3c2)CC1 [Example 9] | 2.82 nM | 128 nM | 26600 nM | 954 nM | 8.1 nM | 8.4 nM | 319 nM | 28000 nM |
| CC(=N)N1CCC(Oc2ccc3c(c2)/C(=C/c2ccc(F)cc2)C(=O)N3Cc2ccc3ccc(C(=N)N)cc3c2)CC1 [Example 10] | 5.92 nM | 201 nM | 38500 nM | 1550 nM | 10.4 nM | 19.3 nM | 407 nM | 20000 nM |
| CC(=N)N1CCC(Oc2ccc3c(c2)/C(=C/c2ccc(Cl)cc2)C(=O)N3Cc2ccc3ccc(C(=N)N)cc3c2)CC1 [Example 11] | 5.76 nM | 259 nM | 28700 nM | 1480 nM | 30.3 nM | 17.4 nM | 309 nM | 16100 nM |
| CC(=N)N1CCC(Oc2ccc3c(c2)/C(=C/C(=O)O)C(=O)N3Cc2ccc3ccc(C(=N)N)cc3c2)CC1 [Example 12] | 17.4 nM | 2420 nM | 62100 nM | 6660 nM | 28.6 nM | 117 nM | 1250 nM | 240000 nM |
| CC(=N)N1CCC(Oc2ccc3c(c2)C(CC(=O)O)C(=O)N3Cc2ccc3ccc(C(=N)N)cc3c2)CC1 (stereo not shown) [Example 13] | 53.6 nM | 1590 nM | 37000 nM | 9940 nM | 140 nM | 90.4 nM | 2130 nM | 500000 nM |

Source: US6548517B2, “Oxindole inhibitors of factor Xa” (Millennium Pharmaceuticals, Inc., priority 2000, dated 2003)
